Read-outs that look alike come from different tables or passages of the source.
Tests used:
[1] = system: HCT116 MTAP-deleted cell lines; test: Cell viability assay (CellTiter-Glo, 7 days), HCT116 MTAP-deleted; format: cell-based; conditions: Homo sapiens, HCT-116, HCT116 MTAP-deleted, class symbols, read-out: CC50
In short: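 Luminescent ATP readout (CellTiter-Glo) after 7 days of continuous compound exposure gives the CC50 value. Cells were plated onto pre-dispensed DMSO dilution series of the PRMT5 inhibitors and kept at 37 °C in 5% CO2.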

[2] = system: Symmetric Di-methyl Arginine (SDMA) signal (PRMT5 inhibition) in HCT116 MTAP-deleted cells; test: Symmetric di-methyl arginine image-based high content screen assay (SDMA assay), HCT116 MTAP-deleted; format: cell-based; conditions: for EC50: Homo sapiens, HCT-116, HCT116 MTAP-deleted, class symbols
In short: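 HCT116 WT and MTAP-deleted cells (800/well, RPMI 1640 + 10% FBS) treated with compound 3 days at 37 °C; formalin-fixed, stained with anti-SDMA antibody/Alexa 488 plus DAPI. Mean SDMA intensity per DAPI-defined cell imaged; EC50 from 4-parameter logistic fit.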

[3] = HCT116 WT vs HCT116 MTAP-deleted
[4] = HCT116 WT versus HCT116 MTAP-deleted

EC50 selectivity [2, 3] | EC50 [2] | EC50 selectivity [2, 4] | SMILES | CC50 ([1]; cell viability assay) | CC50 ([1]; cell viability)
 | ≤ 1 nM | 196 | CN(C(=O)c1cc2c(cc1F)nc(N)c1cncn12)[C@@H]1COc2cc(C(F)(F)F)ccc21 [Ff-12, (S)-4-amino-7-fluoro-N-methyl-N-(6-(trifluoromethyl)-2,3-dihydrobenzofuran-3-yl)imidazo[1,5-a]quinoxaline-8-carboxamide] |  | < 100 nM
 | 1 to 5 nM | 64 | C[C@@H]1CN(C(=O)c2cc3c(cc2F)nc(N)c2cncn23)[C@H]2c3ccc(Br)c(F)c3C[C@H]2O1 (single isomer, unassigned) [Ff-163] |  | < 100 nM
707 | ≤ 1 nM |  | CN(C(=O)c1cc2c(cc1F)nc(N)c1cncn12)[C@@H]1COc2cc(Cl)ccc21 [Ff-567, (S)-4-amino-N-(6-chloro-2,3-dihydrobenzofuran-3-yl)-7-fluoro-N-methylimidazo[1,5-a]quinoxaline-8-carboxamide] | < 100 nM | 
197 | 1 to 5 nM |  | CN(C(=O)c1cc2c(cc1F)nc(N)c1cncn12)[C@@H]1COc2cc(C(F)(F)F)ncc21 [Ff-673, (S)-4-amino-7-fluoro-N-methyl-N-(6-(trifluoromethyl)-2,3-dihydrofuro[3,2-c]pyridin-3-yl)imidazo[1,5-a]quinoxaline-8-carboxamide] | < 100 nM | 
 | 1 to 5 nM | 308 | Nc1nc2cc(F)c(C(=O)N3CCC4CC3c3ccc(C(F)(F)F)cc34)cc2n2cncc12 (stereo not drawn) [Ff-29, (4-amino-7-fluoroimidazo[1,5-a]quinoxalin-8-yl)(7-(trifluoromethyl)-1,3,4,5-tetrahydro-2H-1,5-methanobenzo[c]azepin-2-yl)methanone] |  | 100 to 1000 nM
102 | 1 to 5 nM |  | CN(C(=O)c1ccc2nc(N)c3cncn3c2c1)[C@@H]1COc2cc(C3CC3)ccc21 [Ff-548, (S)-4-amino-N-(6-cyclopropyl-2,3-dihydrobenzofuran-3-yl)-N-methylimidazo[1,5-a]quinoxaline-8-carboxamide] | 100 to 1000 nM | 
23 | ≤ 1 nM |  | Nc1nc2cc(F)c(C(=O)N3CCC[C@@H]4Oc5cc(S(F)(F)(F)(F)F)ccc5[C@@H]43)cc2n2cncc12 [Ff-663, (4-amino-7-fluoroimidazo[1,5-a]quinoxalin-8-yl)((4aS,9bS)-7-(pentafluoro-16-sulfaneyl)-3,4,4a,9b-tetrahydrobenzofuro[3,2-b]pyridin-1(2H)-yl)methanone] | < 100 nM | 
171 | ≤ 1 nM |  | Nc1nc2cc(F)c(C(=O)N3CC[C@H]4C[C@@H]3c3ccc(C(F)(F)F)c(F)c3O4)cc2n2cncc12 [Ff-634, (4-amino-7-fluoroimidazo[1,5-a]quinoxalin-8-yl)((2S,6R)-10-fluoro-9-(trifluoromethyl)-3,4-dihydro-2H-2,6-methanobenzo[b][1,5]oxazocin-5(6H)-yl)methanone] | < 100 nM | 

Second part, the compound before the results:

SMILES | EC50 selectivity [2, 3] | EC50 [2] | EC50 selectivity [2, 4] | CC50 ([1]; cell viability assay) | CC50 ([1]; cell viability)
Nc1nc2ccc(C(=O)N3CCC[C@@H]4Oc5cc(S(F)(F)(F)(F)F)ccc5[C@@H]43)cc2n2cncc12 [Ff-664, (4-aminoimidazo[1,5-a]quinoxalin-8-yl)((4aS,9bS)-7-(pentafluoro-16-sulfaneyl)-3,4,4a,9b-tetrahydrobenzofuro[3,2-b]pyridin-1(2H)-yl)methanone] | 79 | ≤ 1 nM |  | < 100 nM | 
Nc1nc2cc(F)c(C(=O)N3CCC[C@@H]4Oc5cc(-c6cnn(C(F)F)c6)ccc5[C@@H]43)cc2n2cncc12 [Ff-661, (4-amino-7-fluoroimidazo[1,5-a]quinoxalin-8-yl)((4aS,9bS)-7-(1-(difluoromethyl)-1H-pyrazol-4-yl)-3,4,4a,9b-tetrahydrobenzofuro[3,2-b]pyridin-1(2H)-yl)methanone] | 147 | ≤ 1 nM |  | < 100 nM | 
CC(=O)N(C)N(Cc1ccc(C(F)(F)F)cc1F)C(=O)c1ccc2nc(N)c3c(C)nc(C)n3c2c1 [Fa-7, N′-acetyl-4-amino-N-(2-fluoro-4-(trifluoromethyl)benzyl)-N′,1,3-trimethylimidazo[1,5-a]quinoxaline-8-carbohydrazide] |  | > 5 nM | 159 |  | 100 to 1000 nM
Nc1nc2ccc(C(=O)N(Cc3ccc(C(F)(F)F)cn3)N3CCOCC3)cc2c2cncn12 [Fa-3, 5-amino-N-morpholino-N-((5-(trifluoromethyl)pyridin-2-yl)methyl)imidazo[1,5-c]quinazoline-9-carboxamide] |  | > 5 nM | 22 |  | > 1000 nM
Cc1ncc2c3cc(C(=O)N(Cc4ccc(C(F)(F)F)cn4)[C@H](C)c4ncccn4)ccc3nc(N)n12 [Fg-5, (R)-5-amino-3-methyl-N-(1-(pyrimidin-2-yl)ethyl)-N-((5-(trifluoromethyl)pyridin-2-yl)methyl)imidazo[1,5-c]quinazoline-9-carboxamide] | 19 | 1 to 5 nM |  | < 100 nM | 
Cc1ncc2c(N)nc3ccc(C(=O)N(Cc4ccc(C(F)(F)F)cc4F)N(C)C(=O)C4CC4)cc3n12 [Fb-4, 4-amino-N′-(cyclopropanecarbonyl)-N-(2-fluoro-4-(trifluoromethyl)benzyl)-N′,1-dimethylimidazo[1,5-a]quinoxaline-8-carbohydrazide] |  | 1 to 5 nM | 249 |  | 100 to 1000 nM
C[C@H](c1ncccn1)N(Cc1ccc(C(F)(F)F)cn1)C(=O)c1cc2c(cc1F)nc(N)n1cncc21 [Fg-4, (R)-5-amino-8-fluoro-N-(1-(pyrimidin-2-yl)ethyl)-N-((5-(trifluoromethyl)pyridin-2-yl)methyl)imidazo[1,5-c]quinazoline-9-carboxamide] | 23 | 1 to 5 nM |  | 100 to 1000 nM | 
Cc1ncn2c(N)nc3cc(F)c(C(=O)N(Cc4ccc(C(F)(F)F)cn4)[C@H](C)c4ncccn4)cc3c12 [Ff-54, (R)-5-amino-8-fluoro-1-methyl-N-(1-(pyrimidin-2-yl)ethyl)-N-((5-(trifluoromethyl)pyridin-2-yl)methyl)imidazo[1,5-c]quinazoline-9-carboxamide] |  | 1 to 5 nM | 95 |  | < 100 nM
Cc1ncc2c(N)nc3ccc(C(=O)N(Cc4ccc(C(F)(F)F)cn4)N(C)c4ncccn4)cc3n12 [Fa-2, 4-amino-N′,1-dimethyl-N′-pyrimidin-2-yl-N-[[5-(trifluoromethyl)-2-pyridyl]methyl]imidazo[1,5-a]quinoxaline-8-carbohydrazide] |  | ≤ 1 nM | 17 |  | < 100 nM
Cc1ncc2c(N)nc3ccc(C(=O)N(Cc4ccc(C(F)(F)F)cn4)N4CCCC4=O)cc3n12 [Fc-1, 4-amino-1-methyl-N-(2-oxopyrrolidin-1-yl)-N-[[5-(trifluoromethyl)-2-pyridyl]methyl]imid-azo[1,5-a]quinoxaline-8-carboxamide] |  | 1 to 5 nM | 171 |  | 100 to 1000 nM
C[C@H](c1ncccn1)N(Cc1ccc(C(F)(F)F)cn1)C(=O)c1ccc2nc(N)c3cncn3c2c1 [Fe-2, (R)-4-amino-N-(1-(pyrimidin-2-yl)ethyl)-N-((5-(trifluoromethyl)pyridin-2-yl)methyl)imidazo[1,5-a]quinoxaline-8-carboxamide] |  | ≤ 1 nM | 5 |  | < 100 nM
